Measurements from patent US20230219898A1, “COMPOUNDS AND METHODS FOR BLOCKING APOPTOSIS AND INDUCING AUTOPHAGY” (President and Fellows of Harvard College, priority 2020, published 2023).

Tests used:
[1] = Pharmacokinetic (DMPK) study of Apt-1, intracerebroventricular micro-osmotic pump; type: in vivo, mice; conditions: mouse, hippocampus, ICV pump 20 mM Apt-1, 0.25 μl/h
Experimental: Apt-1 was delivered using intracerebroventricular Alzet micro-osmotic pump (20 mM Apt-1, […], release rate: […]). CSF was collected at 1 h, 6 h, and 24 h. Hippocampi were collected at 24 h. The concentrations of Apt-1 were measured by HPLC. The concentration of Apt-1 in hippocampus at 24 h was 6.27 μM. Mean ±s.e.m. (n=3 mice in each group).
WT mice (2 months old) were deeply anesthetized with isoflurane and immobilized in a stereotaxic frame using predetermined coordinates under aseptic conditions. All animals were observed during and after surgery, and an analgesic was administered after surgery. Apt-1 (20 mM, 100 μl, release rate: 0.25 μl/h) was delivered intracerebroventricularly via an ALZET micro-osmotic pump (ALZET Model 1002) and ALZET brain infusion kits into lateral ventricles (ML, −1.0 mm; AP, −0.5 mm; DV, 2.0 mm). The ALZET micro-osmotic pumps were fixed on the skulls of the mice by instant adhesive and the skin incision was closed by suture. At 1 h, 6 h and 24 h after the onset of delivery, cerebrospinal fluid (CSF) was carefully withdrawn by a Hamilton syringe from lateral ventricles (ML, −1.0 mm; AP, −0.5 mm; DV, 2.0 mm) for DMPK analysis. The mice were sacrificed at 24 h and the hippocampi were dissected for DMPK analysis. […] The concentrations of Apt-1 in collected samples were measured by HPLC as a custom service by the Scripps Research Institute Florida.

mice injected with mTNFα = test: In vivo delivery of TNFα, systemic inflammation model; conditions: Apt-1 20 mg/kg i.p. 30 min before mTNFα 9.5 μg i.v.
Experimental: Control mice (n=9) received an equal amount of vehicle before mTNFα challenge. Mean s.e.m. Two-way ANOVA. ***P=0.0007.
WT mice (n=10, male, 8 weeks of age) were injected intravenously via the tail vein with mTNFα (9.5 μg/mouse) after an intraperitoneal injection of Apt-1 (20 mg/kg) 30 min before. Control mice (n=9) received an equal amount of vehicle 30 min before mTNFα challenge. Kaplan Meier survival curve was determined. 25. Vps34 lipid kinase assay HEK293T cells were transfected with Flag-Beclin 1 for 18 h and then treated with ICCB-19, ICCB-19i, Apt-1 (10 μM) for another 6 h. Flag-Beclin 1 was immunoprecipitated by anti-Flag to isolate Beclin 1/Vps34 complex. Immunoprecipitated beads were added with sonicated phosphatidylinositol (1 μl of 5 mg) and ATP (1 μl of 10 mM) in 30 μl reaction buffer (40 mM Tris (pH 7.5), 20 mM MgCl2, 1 mg/ml BSA) for 30 min at room temperature. Wortmannin (10 μM) was used as a control and added into the reaction to inhibit Vps34. The conversion of ATP into ADP levels was measured by an ADP-Glo Kinase Assay Kit (Promega) according to the manufacturer's instructions.

[2] = test system: brain slices from PS19 mice; test: Cultured organotypic brain slices from PS19 mice; type: cell-based; conditions: treatment for 3 h
Experimental: FIG. 14g contains epresentative images and quantification of cultured brain slices from PS19 mice (4 months old) stained with phospho-tau (red) and cell nuclei (DAPI/blue). Mean ±s.e.m. from biological replicates (n=5). Two-tailed t-test.
PS19 mice (4 months old) were anesthetized with isoflurane prior to decapitation. The brain was removed and immediately immersed in ice-cold cutting solution (2.5 mM KCl, 5 mM MgCl2, 11 mM D-Glucose, 238 mM Sucrose, 26 mM NaHCO3, 1 mM NaH2PO4, 1 mM CaCl2)). The cerebellum was trimmed off and the caudal end of the brain was glued onto the cutting table of the vibratome (LEICA VT1000 S, Germany). The brain was cut in coronal slices of […] with an amplitude of 1.5 mm, a frequency of 75 Hz and a velocity of 0.1 mm/s. The slices were collected and stored in ice-cold cutting solution before floating onto semi-porous membrane inserts (Millipore, Millicell-CMLow Height Culture Plate Inserts, Schwalbach, Germany). Slices were cultured at 37° C. and 5% CO2 in a culture medium consisting of 394 ml MEM, 10% normal horse serum, 5 mg/mL penicillin, 5 mg/mL streptomycin, 2.5 ml L-glutamine, 1 mM MgSO4, 11 mM D-Glucose, 238 mM Sucrose, 5 mM NaHCO3, 1 mM CaCl2), 26.6 mM HEPES, 0.024 ml 25% ascorbic acid and 0.5 mg Insulin. Medium was changed every other day. Slices are maintained for 14 days in vitro prior to treatment.

RIPK1 in complex I = test: RIPK1 activation in complex I of TNFα-stimulated MEFs; type: cell-based, mouse; conditions: 10 μM
Experimental: Cells were seeded in 15 cm dishes and treated as indicated with Flag-TNFα ([…]). To terminate treatment, media was removed and plates were washed with 50 mL of ice cold PBS. Plates were frozen at −80C until all time points were acquired. Plates were thawed on ice and cells were lysed in 0.5% NP-40 lysis buffer (50 mM Tris-HCl pH 7.5, 150 mM NaCl and 0.5% NP-40) supplemented with protease inhibitors and N-Ethylmaleimide (2.5 mg/ml). Cell lysates were rotated at 4° C. for 30 min then clarified at 4° C. at 14,000 rpm for 30 min. Proteins were immunoprecipitated from cleared protein lysates with 20 μl of anti-Flag M2 beads (Sigma) with rotation overnight at 4° C. 4×washes in 0.5% NP-40 buffer with N-Ethylmaleimide were performed, and samples eluted by boiling in 50 μl 1×SDS loading buffer. For complex-II purification cells were seeded in 10 cm dishes and treated as indicated using media containing TNFα (10 ng/ml) and zVAD (20 μM). Cells were lysed on ice in 0.5% NP-40 lysis buffer. Cell lysates were rotated at 4C for 30 min then clarified at 4C at 14,000 rpm for 10 min. 20 μl of protein G Sepharose (Sigma), after pre-blocking for 1 h with lysis buffer containing 1% BSA, were incubated with FADD antibody ([…]) and the mixture was incubated in rotation with cleared protein lysates 4 h at 4C. […]

Row | SMILES | concentration at 24 h [1] [µM] | survival following intravenously-delivered TNFα (mice injected with mTNFα) | autophagy and accumulation of mutant tau in brain slices [2] | activation of RIPK1 in complex I induced by TNFα (RIPK1 in complex I)
1 | CN1CCN=C1SC(C(=O)NC1CCCCCC1)c1ccccc1 (stereo not shown) [Compound 30] | 6.27 | increased survival | induced autophagy and reduced the accumulation of mutant tau | –
2 | O=C(CSC1=NCCN1)NC1CCCCCC1 [ICCB-19] | – | – | – | reduced the rapid activation of RIPK1
